Assay results: BigSolDB 2.1

CCC(C)n1ncn(-c2ccc(N3CCN(c4ccc(OC[C@H]5CO[C@](Cn6cncn6)(c6ccc(Cl)cc6Cl)O5)cc4)CC3)cc2)c1=O (mixture of isomers)
solubility (mole fraction)
Conditions | 283.15 K | 288.15 K | 293.15 K | 298.15 K | 303.15 K | 308.15 K | 313.15 K | 318.15 K | 323.15 K
in DMSO | 0.000184 | 0.000237 | 0.000309 | 0.000391 | 0.000469 | 0.000579 | 0.000707 | 0.000888 | 0.00107
in ethanol | 6.88e-06 | 9.34e-06 | 1.26e-05 | 1.66e-05 | 2.16e-05 | 2.83e-05 | 3.73e-05 | 5.03e-05 | 6.36e-05
in isopropanol | 8.3e-06 | 1.04e-05 | 1.3e-05 | 1.57e-05 | 2.02e-05 | 2.48e-05 | 3.02e-05 | 3.65e-05 | 4.37e-05
in methanol | 1.64e-05 | 2.14e-05 | 2.81e-05 | 3.7e-05 | 4.9e-05 | 6.17e-05 | 7.78e-05 | 9.7e-05 | 0.00012
in water | 4.17e-09 | 6.55e-09 | 1.03e-08 | 1.55e-08 | 2.6e-08 | 3.69e-08 | 5.55e-08 | 8.36e-08 | 1.21e-07
